Consider two compounds from PubChem BioAssay AID248 (DTP/NCI, 2004).

For this assay, the system named is L1210 leukemia ip in BDF1 mice, survival T/C. Briefly: NCI In Vivo Anticancer Drug Screen. Data for tumor model L1210 Leukemia (intraperitoneal) in B6D2F1 (BDF1) mice. The following applies: endpoint: mean survival time, higher = longer survival. In short, it runs like this:
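Transplantable tumor model; survival measured in treated vs vehicle control mice. Value = treated/control.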

Several values for one entry are separate records, joined by “and”; a condition that tells them apart may be missing. Identical values can stand only once. Toxic doses and inconclusive results are not listed.

In the case of `O=CC(NC(=O)N(CCCl)N=O)C(O)C(O)C(O)CO` (stereo not drawn), the T/C runs as follows: (dose: 2.0 mg/kg/injection, schedule: Q01DX009 (ip), vehicle: carboxymethylcellulose (CMC)) 169 % of control; (dose: 2.0 mg/kg/injection, schedule: Q01DX009 (ip), vehicle: other) 163 % of control; (dose: 2.0 mg/kg/injection, schedule: Q01DX009 (ip), vehicle: saline) 172 % of control; (dose: 3.0 mg/kg/injection, schedule: Q01DX009 (ip), vehicle: carboxymethylcellulose (CMC)) 186 % of control; (dose: 3.0 mg/kg/injection, schedule: Q01DX009 (ip), vehicle: other) 180 % of control; (dose: 3.0 mg/kg/injection, schedule: Q01DX009 (ip), vehicle: saline) 259 % of control. Also, the T/C reads like this: (dose: 4.4 mg/kg/injection, schedule: Q01DX009 (ip), vehicle: carboxymethylcellulose (CMC)) 204 % of control; (dose: 4.4 mg/kg/injection, schedule: Q01DX009 (ip), vehicle: other) 290 % of control; (dose: 4.4 mg/kg/injection, schedule: Q01DX009 (ip), vehicle: saline) 308 % of control; (dose: 4.5 mg/kg/injection, schedule: Q01DX009 (ip), vehicle: saline) 154 % of control; (dose: 6.0 mg/kg/injection, schedule: Q01DX001 (ip), vehicle: carboxymethylcellulose (CMC)) 152 % of control; (dose: 6.0 mg/kg/injection, schedule: Q01DX001 (ip), vehicle: other) 154 % of control. The T/C is, setting by setting: (dose: 6.7 mg/kg/injection, schedule: Q01DX009 (ip), vehicle: carboxymethylcellulose (CMC)) 318 % of control; (dose: 6.7 mg/kg/injection, schedule: Q01DX009 (ip), vehicle: other) 151 % of control; (dose: 6.7 mg/kg/injection, schedule: Q01DX009 (ip), vehicle: saline) 471 % of control; (dose: 6.8 mg/kg/injection, schedule: Q01DX009 (ip), vehicle: saline) 207 % of control; (dose: 9.0 mg/kg/injection, schedule: Q01DX001 (ip), vehicle: carboxymethylcellulose (CMC)) 208 % of control and 213 % of control; (dose: 9.0 mg/kg/injection, schedule: Q01DX001 (ip), vehicle: other) 155 % of control. Further, the T/C by setting is: (dose: 9.0 mg/kg/injection, schedule: Q01DX001 (ip), vehicle: saline) 336 % of control; (dose: 10.0 mg/kg/injection, schedule: Q01DX009 (ip), vehicle: carboxymethylcellulose (CMC)) 281 % of control; (dose: 10.0 mg/kg/injection, schedule: Q01DX009 (ip), vehicle: other) 107 % of control; (dose: 10.0 mg/kg/injection, schedule: Q01DX009 (ip), vehicle: saline) 152 % of control and 243 % of control; (dose: 13.0 mg/kg/injection, schedule: Q01DX001 (ip), vehicle: carboxymethylcellulose (CMC)) 273 % of control and 302 % of control; (dose: 13.0 mg/kg/injection, schedule: Q01DX001 (ip), vehicle: other) 272 % of control. Moreover, the T/C reads like this: (dose: 13.0 mg/kg/injection, schedule: Q01DX001 (ip), vehicle: saline) 211 % of control and 424 % of control; (dose: 18.0 mg/kg/injection, schedule: Q01DX001 (ip), vehicle: saline) 505 % of control; (dose: 20.0 mg/kg/injection, schedule: Q01DX001 (ip), vehicle: carboxymethylcellulose (CMC)) 455 % of control and 531 % of control; (dose: 20.0 mg/kg/injection, schedule: Q01DX001 (ip), vehicle: other) 575 % of control; (dose: 20.0 mg/kg/injection, schedule: Q01DX001 (ip), vehicle: saline) 296 % of control and 486 % of control; (dose: 26.0 mg/kg/injection, schedule: Q01DX001 (ip), vehicle: saline) 505 % of control. The T/C (dose: 30.0 mg/kg/injection, schedule: Q01DX001 (ip), vehicle: carboxymethylcellulose (CMC)) is 282 % of control and 537 % of control; the T/C (dose: 30.0 mg/kg/injection, schedule: Q01DX001 (ip), vehicle: other) is 506 % of control; the T/C (dose: 30.0 mg/kg/injection, schedule: Q01DX001 (ip), vehicle: saline) is 284 % of control and 617 % of control; the T/C (dose: 44.0 mg/kg/injection, schedule: Q01DX001 (ip), vehicle: carboxymethylcellulose (CMC)) was 162 % of control; the T/C (dose: 45.0 mg/kg/injection, schedule: Q01DX001 (ip), vehicle: carboxymethylcellulose (CMC)) is 266 % of control; the T/C (dose: 45.0 mg/kg/injection, schedule: Q01DX001 (ip), vehicle: other) was 153 % of control.
Turning to `COC(=O)CCC(NC(=O)OCc1ccccc1)C(=O)O` (stereo not drawn), the T/C (dose: 100.0 mg/kg/injection, schedule: Q04DX003 (ip), vehicle: Klucel (hydroxypropylcellulose) (HPC)) is 99 % of control and the T/C (dose: 200.0 mg/kg/injection, schedule: Q04DX003 (ip), vehicle: Klucel (hydroxypropylcellulose) (HPC)) was 112 % of control.
